According to US4898855A, “Deuterated analogs of 1,25-dihydroxycholecalciferol” (Hoffman-La Roche Inc., priority 1987, dated 1990):
Like-named read-outs stand apart in the source and are kept apart here.

Assays:
[1] = tested on: porcine growth-plate cartilage; test: Stimulation of porcine cartilage growth in vitro (organ culture of fetal pig scapula growth-plates); format: cell-based; conditions: for Porcine cartilage in vitro, % increase, dry weight: 14-17 days incubation
Method: Organ cultures of growth-plates from the scapula cartilages of fetal pigs were performed using methods previously described. (Burch WM, Lebovitz HE (1982) "Triiodothyronine stimulates maturation of porcine growth-plate cartilage in vitro." J. Clin. Investig. (70: 496.) Growth-plates (n=12/treatment group) were isolated aseptically, wet weight obtained, and then placed into individuals wells of 24 well-plastic culture plates. Growth-plates were incubated in 1.5 ml of MEM (Joklik-Modified) containing 0.5% BSA for 14-17 days. The medium was changed and fresh additives introduced every 4-5 days. This medium (MEM) was chosen because it contained antibiotics which allowed relatively long-term culture without contamination. BGJb. (Fitton-Jackson modification) medium with addition of antibiotics has also been used with similar results. At the end of the incubation, growth-plates were weighed for wet weight, then air dried for dry weight. The change in growth-plate wet weights were determined and the cartilages were photographed.

[2] = tested on: intestinal ^45 Ca transport (ICA); test: Stimulation of intestinal calcium absorption in rat (everted gut sac); format: in vivo; conditions: 12.5 ng/rat intrajugularly, 18 hours after injection, vitamin D-deficient low calcium diet
Bone Ca resorption (BCR) = test: Bone calcium mobilization in rat (plasma Ca increase); format: in vivo; conditions: 12.5 ng/rat intrajugularly, 18 hours after injection, vitamin D-deficient low calcium diet
Method: Male weanling rats (Holtzman, Madison WI.) were housed individually in overhanging wire cages and were fed a vitamin D-deficient diet containing low calcium (0.005%) and normal phosphorus (0.3%). Test compounds were dissolved in 10-20 μl of ethanol. Plasma (1.8 ml), collected from vitamin D, deficient rats was added to the ethanol solution. The test compounds were given intrajugularly in 0.3 ml of the ethanol-plasma carrier solution. Controls received carrier alone.
Bone Ca resorption (BCR) was estimated by mesuring the blood Ca increase in the treated rats. Blood was collected in heparinized tubes and centrifuged. The resulting plasma was measured for calcium concentration by atomic absorption spectroscopy. Since rats were fed a diet essentially devoid of Ca, plasma Ca increases reflected mobilization of Ca from bone, not intestinal Ca absorption.

vitamin D deficient rats = format: in vivo, rat; conditions: for Bone Mass: histomorphometric
Method: Rats were placed on the following protocol. […]
Ten 3 week old rats were maintained on vitamin D3 deficient diet for 6 weeks.
The following parameters in Table III were evaluated, by means which are conventional in the art, after completion the above treatments. Bone mass is measured by known histomorphometric methods.

[3] = tested on: embryonic chick pelvic cartilage; test: Stimulation of avian cartilage growth in vitro (organ culture of embryonic chick pelvic cartilage); conditions: for Avian cartilage in vitro, % increase, dry weight: 3-day incubation
[4] = high dose: daily 60 ng 1,25-(OH)2 D3 or 66 ng Hexa ^2 H, 3 weeks, vitamin D3 deficient diet
[5] = low dose: daily 15 ng 1,25-(OH)2 D3 or 16.5 ng Hexa ^2 H, 3 weeks, vitamin D3 deficient diet

## C=C1/C(=C\C=C2/CCC[C@]3(C)[C@@H]([C@H](C)CCCC(C)(C)O)CC[C@@H]23)C[C@@H](O)C[C@@H]1O [1,25-(OH)2 D3, 1α,25-dihydroxycholecalciferol, reference compound]
[1]; 10^-9 M
  Porcine cartilage in vitro, % increase, ^3 H: 300%
  Porcine cartilage in vitro, % increase, ^35 S: 280%
  Porcine cartilage in vitro, % increase, dry weight: 49%
[1]; 10^-10 M
  Porcine cartilage in vitro, % increase, ^3 H: 0%
  Porcine cartilage in vitro, % increase, ^35 S: 0%
  Porcine cartilage in vitro, % increase, dry weight: 0%
[1]; 10^-11 M
  Porcine cartilage in vitro, % increase, ^3 H: 0%
  Porcine cartilage in vitro, % increase, ^35 S: 0%
  Porcine cartilage in vitro, % increase, dry weight: 0%
[2]
  % of 1,25-(OH)2 D3 effect in rat, intestinal calcium absorption: 100%
Bone Ca resorption (BCR)
  % of 1,25-(OH)2 D3 effect in rat, bone calcium mobilization: 100%
Vitamin D deficient rats; [4]
  Body Weight: 156 ± 15 gr
  Serum Creatinine: 0.35 ± 0.02 mg/dL
  Bone Mass: 296 ± 56 ^mm.spsp.3 /cm^3
Vitamin D deficient rats; [5]
  Body Weight: 192 ± 4.5 gr
  Serum Ca^2+: 11.87 ± 0.16 mg/dL
  Serum Creatinine: 0.37 ± 0.04 mg/dL
  Bone Mass: 156 ± 16 ^mm.spsp.3 /cm^3
Vitamin D deficient rats; rat, in vivo
  Serum Ca^2+: 11.92 ± 0.40 mg/dL
[3]; 10^-9 M
  Avian cartilage in vitro, % increase, dry weight: 31.8%
[3]; 10^-10 M
  Avian cartilage in vitro, % increase, ^3 H proline: 122%
  Avian cartilage in vitro, % increase, ^35 S: 21.8%
  Avian cartilage in vitro, % increase, dry weight: 27.2%
[3]; 10^-11 M
  Avian cartilage in vitro, % increase, ^3 H proline: 68.3%
  Avian cartilage in vitro, % increase, ^35 S: 13.8%
  Avian cartilage in vitro, % increase, dry weight: 24.1%
[3]; 10^-12 M
  Avian cartilage in vitro, % increase, ^3 H proline: 46.3%
  Avian cartilage in vitro, % increase, ^35 S: 8.6%
  Avian cartilage in vitro, % increase, dry weight: 22.6%

## [2H]C([2H])([2H])C(O)(CCC[C@@H](C)[C@H]1CC[C@H]2/C(=C/C=C3/C[C@@H](O)C[C@H](O)C3=C)CCC[C@]12C)C([2H])([2H])[2H] [1,25-(OH)2 D3 -Hexa^2 H, 26,26,26,27,27,27-hexadeutero-1α,25-dihydroxycholecalciferol]
[1]; 10^-10 M
  Porcine cartilage in vitro, % increase, ^3 H: 215.7%
  Porcine cartilage in vitro, % increase, ^35 S: 466.0%
  Porcine cartilage in vitro, % increase, dry weight: 57.6%
[1]; 10^-11 M
  Porcine cartilage in vitro, % increase, ^3 H: 123.6%
  Porcine cartilage in vitro, % increase, ^35 S: 203.2%
  Porcine cartilage in vitro, % increase, dry weight: 40.9%
[1]; 10^-12 M
  Porcine cartilage in vitro, % increase, dry weight: 31.5%
[1]; 10^-13 M
  Porcine cartilage in vitro, % increase, dry weight: 29.5%
[2]
  % of 1,25-(OH)2 D3 effect in rat, intestinal calcium absorption: 92%
Bone Ca resorption (BCR)
  % of 1,25-(OH)2 D3 effect in rat, bone calcium mobilization: 64%
Vitamin D deficient rats; [4]
  Body Weight: 163 ± 7.2 gr
  Serum Ca^2+: 11.20 ± 0.28 mg/dL
  Serum Creatinine: 0.36 ± 0.04 mg/dL
  Bone Mass: 371 ± 68 ^mm.spsp.3 /cm^3
Vitamin D deficient rats; [5]
  Body Weight: 193 ± 5 gr
  Serum Ca^2+: 11.28 ± 0.26 mg/dL
  Serum Creatinine: 0.36 ± 0.02 mg/dL
  Bone Mass: 288 ± 58 ^mm.spsp.3 /cm^3
Vitamin D deficient rats; summary of Table III
  activity in increasing bone mass compared with 1,25-(OH)2 D3: more active than 1,25-(OH)2 D3
  activity in inducing hypercalcemia compared with 1,25-(OH)2 D3 (serum Ca^2+): not as active as 1,25-(OH)2 D3
[3]; 10^-9 M
  Avian cartilage in vitro, % increase, ^3 H proline: 148.3%
  Avian cartilage in vitro, % increase, ^35 S: 41.0%
  Avian cartilage in vitro, % increase, dry weight: 35.3%
[3]; 10^-10 M
  Avian cartilage in vitro, % increase, ^3 H proline: 145.4%
  Avian cartilage in vitro, % increase, ^3 H thymidine: 44.3%
  Avian cartilage in vitro, % increase, ^35 S: 30.1%
  Avian cartilage in vitro, % increase, dry weight: 29.1%
[3]; 10^-11 M
  Avian cartilage in vitro, % increase, ^3 H proline: 131.4%
  Avian cartilage in vitro, % increase, ^35 S: 26.3%
  Avian cartilage in vitro, % increase, dry weight: 29.8%
[3]; 10^-12 M
  Avian cartilage in vitro, % increase, ^3 H proline: 65.0%
  Avian cartilage in vitro, % increase, ^3 H thymidine: 62.5%
  Avian cartilage in vitro, % increase, dry weight: 31.2%
[3]; 10^-13 M
  Avian cartilage in vitro, % increase, ^3 H proline: 36.0%
  Avian cartilage in vitro, % increase, ^3 H thymidine: 57.9%
  Avian cartilage in vitro, % increase, ^35 S: 21.5%
  Avian cartilage in vitro, % increase, dry weight: 20.5%

## [2H]C([2H])([2H])C(O)(C([2H])([2H])[2H])C([2H])([2H])CC[C@@H](C)[C@H]1CC[C@H]2/C(=C/C=C3/C[C@@H](O)C[C@H](O)C3=C)CCC[C@]12C [1,25-(OH)2 D3 -Octa^2 H, 24,24,26,26,26,27,27,27-octadeutero-1α,25-dihydroxycholecalciferol]
[1]; 10^-9 M
  Porcine cartilage in vitro, % increase, ^3 H: 150%
  Porcine cartilage in vitro, % increase, ^35 S: 490%
  Porcine cartilage in vitro, % increase, dry weight: 60%
[1]; 10^-10 M
  Porcine cartilage in vitro, % increase, ^3 H: 75%
  Porcine cartilage in vitro, % increase, ^35 S: 410%
  Porcine cartilage in vitro, % increase, dry weight: 50%
[1]; 10^-11 M
  Porcine cartilage in vitro, % increase, ^3 H: 20%
  Porcine cartilage in vitro, % increase, ^35 S: 95%
  Porcine cartilage in vitro, % increase, dry weight: 42%
Bone Ca resorption (BCR)
  % of 1,25-(OH)2 D3 effect in rat, bone calcium mobilization: 147%
[3]; 10^-9 M
  Avian cartilage in vitro, % increase, ^35 S: 10.8%
  Avian cartilage in vitro, % increase, dry weight: 28.0%
[3]; 10^-10 M
  Avian cartilage in vitro, % increase, ^3 H thymidine: 25.0%
  Avian cartilage in vitro, % increase, dry weight: 21.6%
[3]; 10^-11 M
  Avian cartilage in vitro, % increase, ^3 H thymidine: 20.7%
  Avian cartilage in vitro, % increase, dry weight: 17.0%
[3]; 10^-12 M
  Avian cartilage in vitro, % increase, ^3 H thymidine: 15.3%
  Avian cartilage in vitro, % increase, dry weight: 10.3%
